In general, pIC50 refers to −log10 of the IC50, conventionally taken in molar units. In general, inhibition refers to the drop in the measured response relative to a control, in per cent.

One assay relates to ZDF rats. Put plainly: Graded glucose infusion, renal threshold for glucose excretion in ZDF rats. As to conditions: 1 mg/kg. It is filed as in vivo, rat. From the text:
Four rodent models were used in these experiments: (1) male C57BL/6J mice fed with a high-fat diet (D-12492 with 60 kcal% fat, Research Diets, Inc, New Jersey, USA) (diet-induced obese, insulin resistantmice [DIO]); (2) male C57BL/ksj-db/db hyperglycemic mice; (3) male Zucker fatty (ZF) obese, insulin resistant rats; and (4) male ZDF obese, hyperglycemic rats. All animals were housed according to standard procedures following a protocol approved by the IACUC in Drug Discovery at Johnson & Johnson Pharmaceutical Research & Development, LLC.
Two separate graded glucose infusion (GGI) studies were performed to characterize renal glucose handling in both untreated and treated ZDF rats. […] The RTG was determined as described below.
The relationship between UGE and BG is commonly described as a threshold relationship in which there is little UGE when BG<RTG and UGE increases with filtered glucose load when BG>RTG, where the filtered glucose load is equal to the BG concentration multiplied by the glomerular filtration rate (GFR). […] (1) Values of RTG were determined using nonlinear regression (nlinfit in Matlab version 7.10) with Equation 1 and the measured BG and UGE values.

A further assay has as its target T1, Mouse SGLT1 (Mus musculus, UniProt Q8C3K6).
T1 construct: expressed in transfected cells; host or cells: CHO-K (CHOK) cells
T1 sequence (Q8C3K6 1-665): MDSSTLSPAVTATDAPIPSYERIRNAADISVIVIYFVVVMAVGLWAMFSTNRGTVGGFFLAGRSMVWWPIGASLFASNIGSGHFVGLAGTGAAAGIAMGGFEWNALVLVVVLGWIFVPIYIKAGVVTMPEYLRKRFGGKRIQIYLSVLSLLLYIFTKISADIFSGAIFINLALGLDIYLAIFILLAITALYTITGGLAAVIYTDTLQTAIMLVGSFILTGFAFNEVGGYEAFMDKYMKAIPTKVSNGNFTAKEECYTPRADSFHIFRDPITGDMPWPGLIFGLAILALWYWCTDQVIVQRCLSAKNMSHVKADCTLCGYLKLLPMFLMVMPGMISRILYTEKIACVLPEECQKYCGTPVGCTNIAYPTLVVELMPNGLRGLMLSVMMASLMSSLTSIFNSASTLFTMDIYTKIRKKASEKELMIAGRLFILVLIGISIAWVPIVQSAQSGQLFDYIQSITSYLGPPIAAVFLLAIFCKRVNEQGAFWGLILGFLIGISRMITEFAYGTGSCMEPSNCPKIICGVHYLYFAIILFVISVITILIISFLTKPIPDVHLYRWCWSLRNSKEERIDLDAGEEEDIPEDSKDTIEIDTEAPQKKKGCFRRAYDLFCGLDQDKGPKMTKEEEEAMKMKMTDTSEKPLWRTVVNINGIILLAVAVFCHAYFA
Kind of assay: 14C-AMG uptake in CHOK cells expressing mouse SGLT1. It is filed as cell-based. As to conditions: CHO-mSGLT1 cells, mean of 2 experiments. The method, then:
Cells were seeded into 96-well plates.
All data are presented as mean ± standard error.

In assay [1] the target is T2, glucose transporter 1 (GLUT1) (Rattus norvegicus, UniProt P11167).
T2 construct: endogenous in cells; host or cells: L6 rat skeletal muscle myoblasts
T2 sequence (P11167 1-492): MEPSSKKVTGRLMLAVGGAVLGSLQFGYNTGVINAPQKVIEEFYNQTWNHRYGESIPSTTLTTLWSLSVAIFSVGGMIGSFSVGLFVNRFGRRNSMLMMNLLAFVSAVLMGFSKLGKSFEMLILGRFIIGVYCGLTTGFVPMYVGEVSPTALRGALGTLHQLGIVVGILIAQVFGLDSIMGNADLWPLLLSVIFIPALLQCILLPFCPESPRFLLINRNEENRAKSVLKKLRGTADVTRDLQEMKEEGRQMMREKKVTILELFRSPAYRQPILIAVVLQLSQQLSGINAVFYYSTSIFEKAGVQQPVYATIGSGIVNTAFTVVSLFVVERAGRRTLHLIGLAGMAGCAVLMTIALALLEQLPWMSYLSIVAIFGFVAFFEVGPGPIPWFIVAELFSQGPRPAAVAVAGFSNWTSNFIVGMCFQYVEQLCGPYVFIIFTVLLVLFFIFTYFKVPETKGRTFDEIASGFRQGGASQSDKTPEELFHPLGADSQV
Kind of assay: 3H-2-deoxy-glucose uptake in L6 myoblast cells. The class given is cell-based. As to the method:
Cells were maintained in Dulbecco's modified Eagle's medium containing 5.6 mM glucose supplemented with 10% fetal bovine serum, were seeded in 24-well plates at a density of 3.0×10^5 cells/well and cultured for 24 hours in an atmosphere of 5% CO2 at 37°C. […] The transport reaction was initiated by adding 50 µl of 4.5 mM 2-DG (a substrate for GLUTs)/^3H-2-DG (0.625 µCi) followed by incubation for 15 minutes at room temperature. The 2-DG uptake was halted by aspiration of the incubation mixture. Cells were immediately washed 3 times with ice-cold PBS. Samples were extracted with 0.3 N NaOH, and radioactivity was determined by liquid scintillation (Packard, Boston, Massachusetts, USA).

Molecules are shown by their SMILES. pIC50: −log10 of the molar value. Some results are limits rather than exact numbers.

On to `Cc1ccc([C@@H]2O[C@H](CO)[C@@H](O)[C@H](O)[C@H]2O)cc1Cc1ccc(-c2ccc(F)cc2)s1` [canagliflozin, Canagliflozin], for which the “BG at which negligible UGE occurred” value in the assay on ZDF rats (insulin + GGI study) is under 90 mg/dL. Moreover, the “renal threshold for glucose excretion (RTG)” value with ZDF rats (untreated 415±12 mg/dl) turned out to be 94 ± 10 mg/dL. Besides, the pIC50 is under 6.00 on Mouse SGLT1 and under 5.00 in assay [1] (3H-2-DG uptake, rat L6 myoblast cells). Further, in assay [1] (10 µM, L6 myoblasts, read-out: inhibition of facilitative GLUT-mediated 3H-2-DG uptake), the inhibition at 10 µM was under 50%.

Values taken from article PMC3280264 (PLoS ONE, 2012).
